Tested on: male Balb/c mice
Assay: TNBS-induced experimental colitis in mice, lesion length of the colon
Format: in vivo
Settings: for improvement of colitis compared with combination administration, in words: single administration at a dose higher than that in the combination administration
Method: A total of 0.08 ml of a 1:1 (v/v) mixture of 10% picrylsulfonic acid (TNBS) solution and ethanol was administered to anesthetized male Balb/c mice (Charles River Japan, Inc., Yokohama, Japan) according to previous reports (J Exp Med 2001; 193: p 827-38, J Exp Med 2001; 193: p 25-34) to thereby induce experimental colitis. The colon (large intestine) was sampled two days later, and the length of a flare site accompanied with ulcer or hyperplasia near to the lumen was measured and was defined as the lesion length. The inhibition (%) was calculated from the average lesion length of a treated group, compared with the average lesion length of a control group. The test compound suspended in a 0.5% solution of methylcellulose was orally administered to the mice via sonde once a day from two days before the beginning of colitis induction.

SMILES: CN(CCOc1ccc(CC2SC(=O)NC2=O)cc1)c1ccccn1 (centres unmarked) [Rosiglitazone, rosiglitazone]
- Inhibition (%) of average lesion length (Rosiglitazone 1 mg/kg/day, oral, once a day, single administration): 23%
- Inhibition (%) of average lesion length (Rosiglitazone 10 mg/kg/day, oral, once a day, single administration): 37%

SMILES: O=C(O)c1cc(N=Nc2ccc(S(=O)(=O)Nc3ccccn3)cc2)ccc1O [Sulfasalazine, 2-hydroxy-5-[[4-[(2-pyridinylamino)sulfonyl]phenyl]-azo]benzoic acid]
- Inhibiton (%) of average lesion length (Sulfasalazine 100 mg/kg/day, oral, single administration (Table 3)): 40%
- Inhibiton (%) of average lesion length (Sulfasalazine 300 mg/kg/day, oral, single administration): 35%
- Inhibiton (%) of average lesion length (Table 5: Sulfasalazine 100 mg/kg/day alone): 43%
- improvement of colitis, in words (single administration): partially improves colitis
- improvement of colitis compared with combination administration, in words: improves colitis less effectively

SMILES: CC(C)O[C@@H](Cc1cccc(CNC(=O)OCc2cccc(OC(F)(F)F)c2)c1)C(=O)O [Compound 1, 3-(3-{[3-trifluoromethoxybenzyloxycarbonylamino]methyl}phenyl)-2(S)-isopropoxypropanoic acid]
- Inhibition (%) of average lesion length (Compound 1 0.3 mg/kg/day, oral, once a day): 8%
- Inhibition (%) of average lesion length (Compound 1 1 mg/kg/day, oral, once a day): 21%
- Inhibition (%) of average lesion length (Compound 1 3 mg/kg/day, oral, once a day (Table 2)): 38%
- Inhibition (%) of average lesion length (Compound 1 10 mg/kg/day, oral, once a day): 34%
- Inhibiton (%) of average lesion length (Table 5: Compound 1 3 mg/kg/day alone): 29%
- improvement of colitis, in words (single administration): partially improves colitis
- improvement of colitis compared with combination administration, in words: improves colitis less effectively

— patent publication US20060177444A1, “Concomitant drug as therapeutic agent for inflammatory bowel disease” (priority 2003, published 2006)
